Results as given in patent US11896704B2, “Compounds useful for the treatment and/or care of the skin, hair, nails and/or mucous membranes” (LUBRIZOL ADVANCED MATERIALS, INC., priority 2017, dated 2024).

Tests used:
Assay type in all cases: cell-based
[1] = system: Phenion Full-Thickness Skin models; test: Lipidomics profile (UHPLC-MS) in synchronized human full-thickness skin models; details: 0.5 mg/ml, 48 hours of treatment, 7:30 h, one assay
Text: Analysis of Lipidomics Profile in Synchronized Human Full-Thickness Skin Models. Lipidomic profile from human skin models can be assessed by measuring using an ultrahigh performance liquid chromatography-mass spectrometry (UHPLC-MS). The main objective of this experiment is to evaluate the lipidomic profile of synchronized human skin models after the treatment with the peptide […] (PEP-1, H-[SEQ ID. NO. 2]-NH2) in order to determine ceramide skin content and the PC-DHA/PC ratio. After arrival, the Phenion® Full-Thickness Skin models ([…]) are placed in Petri dishes (5 skin models per condition) according to the supplier's instructions in ALI medium ([…]). After 72 hours incubation at 37° C., 5% CO2, a synchronization protocol is initialized. For this purpose, skin models are subjected to two alternative cycles of 12 hours each at 37° C. in 5% CO2 humidified air (day mode) and 33° C. in 5% CO2 humidified air (night mode). Skin models are treated with the peptide […] (PEP-1, H-[SEQ ID. NO. 2]-NH2) at 0.5 mg/ml both in the above surface (50 μl of treatment) of the models and within the Petri-dish containing medium. Skin models treated with medium are used as a basal control condition. This treatment is […] hours in the same conditions. […] These values are calculated for one assay. […] These values are calculated for one assay.

JARID1A protein (KDM5A) = test: JARID1A protein level in synchronized human keratinocytes (HaCaT), ELISA normalized to total protein; details: 0.5 mg/ml, 7:30 hours, mean of at least six assays
Method: In Vitro Study of JARID1A Protein Increase Protein Level by the Peptide […] (PEP-1, H-[SEQ ID. NO. 2]-NH2) on Synchronized Human Keratinocytes Using an ELISA Assay Based on Colorimetric Detection. HaCaT cells (human keratinocyte cell line, Deutsches Krebsforschungszentrum) are seeded at a density of 200.000 cells/well (2 wells per condition) in 12-well plates. Cells are seeded in culture medium Dulbecco's Modified Eagle Medium high GlutamaxTM (Fisher Scientific) supplemented with 10% (volume/volume) Fetal Bovine Serum (Cultek). […] Nuclear extracts are assayed to quantify the level of JARID1A protein and total protein concentration. JARID1A protein is quantified using an enzyme linked immunosorbent assay (Human lysine-specific demethylase 5A (KDM5A) (CUSABIO) according to the manufacturer's protocol. In brief, JARID1A protein is detected with the antibodies provided in the kit and quantified by a colorimetric reaction. Absorbance quantification is carried out by using a microplate reader (ClarioStar®, BMG) set to 450 nm and 570 nm. For wavelength correction, readings at 570 nm were subtracted from readings at 450 nm. Total protein concentration of cell lysate is determined by using Pierce BCA Protein Assay Kit (Thermo Scientific). […] After 30 minutes of incubation at 60° C., the change in colour is measured with the absorbance microplate reader (Clariostar®, BMG) at 562 nm. […]

[2] = system: Human Dermal Fibroblasts (HDFa); test: Mitochondrial membrane potential in HDFa, JC-1 fluorescence assay; details: 0.5 mg/ml, 16 hours
Method: In Vitro Study of Increasing the Mitochondrial Membrane Potential in Human Dermal Fibroblasts (HDFa) by an Immunofluorescence Assay.
Human Dermal Fibroblasts from adult (HDFa, Life Technologies) are seeded at a density of 6,000 cells/well (3 wells per condition) in 96-well plates. Cells are seeded in culture medium M106 with Low Serum Growth Supplement (Life Technologies) during 24 hours at 37° C. in 5% CO2 humidified air. […]. Non-treated cells incubated with medium alone are used as basal conditions.
After 16 hours of treatment, cells are used to quantify mitochondria membrane potential by using JC-1 mitochondrial membrane potential assay kit (Abcam) according to the manufacturer's protocol. Briefly, cells are incubated with a JC-1 working solution prepared with Supplemented Dilution Buffer in the presence of the treatment with the peptide at 0.5 mg/ml at 37° C. 5% CO2 for 30 minutes. […]
Cells are imaged and mitochondrial membrane potential is measured using Operetta® High Content Imaging System (PerkinElmer, Inc). […] Cell number is quantified by using Hoechst 33342 (ThermoFisher Scientific) staining, a cell-permeant nuclear counterstain that emits blue fluorescence at 460 nm when bound to dsDNA and is excited at 350 nm. For each image, intensity fluorescence from energized and depolarized cells is quantified and normalized against the number of nuclei. […]

## H-Phe-Trp-Met-Lys-Arg-Lys-Arg-Val-Pro-NH2 (H-FWMKRKRVP-NH2) [PEP-1]
[1]; relative to basal condition 7:30 h
  Ceramides amount (%): 147.6%
[1]; relative to basal conditions 7:30 h
  Percentage PC-DHA/PC ratio (%): 120.2%
JARID1A protein (KDM5A)
  Percentage of JARID1A protein relative to basal condition (%): 126.84%
[2]
  Percentage of MMP relative to basal conditions (%): 130.98%
